Measurements as given in patent US20230121721A1, “MONOACYLGLYCEROL LIPASE INHIBITORS” (STICHTING HET NEDERLANDS KANKER INSTITUUT - ANTONI VAN …, priority 2020, published 2023).

Target: T1, hMAGL (MAGL-overexpressing membrane preparations from transiently transfected HEK293T cells) (Homo sapiens, UniProt Q99685)
T1 construct: expressed in transfected cells; host or cells: HEK293T (transient transfection), membrane preparations
T1 sequence (Q99685 1-303): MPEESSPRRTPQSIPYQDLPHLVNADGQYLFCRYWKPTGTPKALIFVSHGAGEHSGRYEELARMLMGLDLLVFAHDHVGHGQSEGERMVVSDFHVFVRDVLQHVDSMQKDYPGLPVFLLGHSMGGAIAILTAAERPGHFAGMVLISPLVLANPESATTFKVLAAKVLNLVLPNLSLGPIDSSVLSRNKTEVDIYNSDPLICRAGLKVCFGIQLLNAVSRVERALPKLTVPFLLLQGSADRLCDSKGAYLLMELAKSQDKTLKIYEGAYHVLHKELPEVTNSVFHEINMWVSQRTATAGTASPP
Assay: MAGL activity assay (2-AG hydrolysis, glycerol coupled to Amplifu Red fluorescence)
Type: biochemical
Settings: hMAGL-overexpressing HEK293T membranes, 25 μM 2-AG substrate, 20 min. inhibitor incubation
Excerpt: The MAGL activity assay is based on the production of glycerol from 2-arachidonoylglycerol (2-AG) hydrolysis by MAGL-overexpressing membrane preparations from transiently transfected HEK293T cells, as previously reported in van der Wel T et al., “A natural substrate-based fluorescence assay for inhibitor screening on diacylglycerol lipase”, J Lipid Res., 2015, 56(4), 927-35. The produced glycerol is coupled to the oxidation of commercially available Amplifu™ Red (Sigma-Aldrich Chemie N.V., Zwijndrecht, Netherlands) via a multi-enzyme cascade, resulting in a fluorescent signal from the dye resorufin.
Standard assays were performed in HEMNB buffer (50 mM HEPES pH 7.4, 1 mM EDTA, 5 mM MgCl2, 100 mM NaCl, 0.5% (w/v) BSA) in black, flat bottom 96-wells plates. Final protein concentration of membrane preparations from overexpressing hMAGL HEK293T cells was 1.5 μg/mL (0.3 μg per well). Inhibitors were added from 40× concentrated DMSO stocks. […] Final assay concentrations: 0.2 U/mL GK, GPO and HRP, 0.125 mM ATP, 10 μM Amplifu™ Red, 25 μM 2-AG, 5% DMSO, 0.5% ACN in a total volume of 200 μL.
For IC50 determination, the MAGL-overexpressing membranes were incubated with different inhibitor concentrations. Slopes of corrected fluorescence in time were determined in the linear interval of t=10 to t=35 min and then scaled to the corrected positive control of hMAGL-overexpressing membranes treated with vehicle (DMSO) as a 100% activity reference point. The data was exported to GraphPad Prism 5.0 and analysed in a non-linear dose-response analysis with variable slope.

Point of comparison: CCOC(=O)C[S+]([O-])c1ccc(C(=O)N2CCN(c3cccc(C(F)(F)F)c3)[C@H](C)C2)cc1[N+](=O)[O-] (stereo partly drawn) [Example 30, Ethyl 2-((4-((R)-3-methyl-4-(3-(trifluoromethyl)phenyl)piperazine-1-carbonyl)-2-nitrophenyl)sulfinyl)acetate], IC50 115 nM. Against it:
- C[C@H]1[C@H](C)N(c2cccc(Cl)c2)CCN1C(=O)c1ccc([S+]([O-])CC(=O)c2ncccn2)c(Cl)c1 (mixture of isomers) [Example 102, (±) 2-((2-Chloro-4-(4-(3-chlorophenyl)-trans-2,3-dimethylpiperazine-1-carbonyl)phenyl)sulfinyl)-1-(pyrimidin-2-yl)ethan-1-one] — 4.1-fold lower, 28.2 nM
- C[C@H]1[C@H](C)N(c2cccc(Cl)c2)CCN1C(=O)c1ccc([S+]([O-])CC(=O)c2ncco2)c(Cl)c1 (mixture of isomers) [Example 74, (±) 2-((2-Chloro-4-(4-(3-chlorophenyl)-trans-2,3-dimethylpiperazine-1-carbonyl)phenyl)sulfinyl)-1-(oxazol-2-yl)ethan-1-one] — 1.8-fold higher, 204 nM
- CCOC(=O)C[S+]([O-])c1ccc(C(=O)N2CCN(c3c(Cl)cccc3Cl)CC2)cc1[N+](=O)[O-] (centres unmarked) [Example 24, Ethyl 2-((4-(4-(2,6-dichlorophenyl)piperazine-1-carbonyl)-2-nitrophenyl)sulfinyl)acetate] — 16-fold higher, 1820 nM
- CCOC(=O)CS(=O)(=O)c1ccc(C(=O)N2CCN(c3cccc(Cl)c3)[C@H](C)[C@H]2C)cc1Cl (racemic) [Example 53, (±) Ethyl 2-((2-chloro-4-(4-(3-chlorophenyl)-trans-2,3-dimethylpiperazine-1-carbonyl)phenyl)sulfonyl)acetate] — 2.9-fold higher, 339 nM
- COCC(C)OC(=O)C[S+]([O-])c1ccc(C(=O)N2CCN(c3cccc(Cl)c3)[C@@H](C)[C@@H]2C)cc1Cl (mixture of isomers) [Example 66, (±) 1-Methoxypropan-2-yl 2-((2-chloro-4-(4-(3-chlorophenyl)-trans-2,3-dimethylpiperazine-1-carbonyl)phenyl)sulfinyl)acetate] — 2.5-fold lower, 46.8 nM
- CCOC(=O)C[S+]([O-])c1ccc(C(=O)N2CCN(c3cccc(Cl)c3)C(C)(C)C2)cc1F (centres unmarked) [Example 47, Ethyl 2-((4-(4-(3-chlorophenyl)-3,3-dimethylpiperazine-1-carbonyl)-2-fluorophenyl)sulfinyl)acetate] — 2.5-fold lower, 46.8 nM
- C[C@H]1[C@H](C)N(c2cccc(Cl)c2)CCN1C(=O)c1ccc([S+]([O-])CC(=O)c2ccc(F)c(F)c2)c(Cl)c1 (mixture of isomers) [Example 94, (±) 2-((2-Chloro-4-(4-(3-chlorophenyl)-trans-2,3-dimethylpiperazine-1-carbonyl)phenyl)sulfinyl)-1-(3,4-difluorophenyl)ethan-1-one] — 6.6-fold higher, 759 nM
- CCOC(=O)C[S+]([O-])c1ccc(C(=O)N2CCN(c3cccc([N+](=O)[O-])c3)CC2)cc1[N+](=O)[O-] (centres unmarked) [Example 19, Ethyl 2-((2-nitro-4-(4-(3-nitrophenyl)piperazine-1-carbonyl)phenyl)sulfinyl)acetate] — 22-fold higher, 2570 nM
- CCOC(=O)C[S+]([O-])c1ccc(CN2CCN(c3cccc(Cl)c3)[C@H](C)[C@H]2C)cc1Cl (mixture of isomers) [Example 54, (±) Ethyl 2-((2-chloro-4-((4-(3-chlorophenyl)-trans-2,3-dimethylpiperazin-1-yl)methyl)phenyl)sulfinyl)acetate] — 19-fold lower, 6.17 nM
- C[C@H]1[C@H](C)N(c2cccc(Cl)c2)CCN1C(=O)c1ccc([S+]([O-])CC(=O)c2ccc(C(F)(F)F)cc2)c(Cl)c1 (mixture of isomers) [Example 103, (±) 2-((2-Chloro-4-(4-(3-chlorophenyl)-trans-2,3-dimethylpiperazine-1-carbonyl)phenyl)sulfinyl)-1-(4-(trifluoromethyl)phenyl)ethan-1-one] — 26-fold higher, 2950 nM
- C[C@H]1[C@H](C)N(c2cc(Cl)ccn2)CCN1C(=O)c1ccc([S+]([O-])CC(=O)C(C)(F)F)c(Cl)c1 (mixture of isomers) [Example 83, (±) 1-((2-Chloro-4-(4-(4-chloropyridin-2-yl)-trans-2,3-dimethylpiperazine-1-carbonyl)phenyl)sulfinyl)-3,3-difluorobutan-2-one] — 34-fold lower, 3.39 nM
- C[C@H]1[C@H](C)N(c2cccc(Cl)c2)CCN1C(=O)c1ccc([S+]([O-])CC(=O)C(C)(F)F)c(Cl)c1 (mixture of isomers) [Example 78, (±) 1-((2-Chloro-4-(4-(3-chlorophenyl)-trans-2,3-dimethylpiperazine-1-carbonyl)phenyl)sulfinyl)-3,3-difluorobutan-2-one] — 78-fold lower, 1.48 nM
- C[C@H]1[C@H](C)N(c2cccc(Cl)c2)CCN1C(=O)c1ccc([S+]([O-])CC(=O)c2ccc(F)c(C(F)(F)F)c2)c(Cl)c1 (mixture of isomers) [Example 92, (±) 2-((2-Chloro-4-(4-(3-chlorophenyl)-trans-2,3-dimethylpiperazine-1-carbonyl)phenyl)sulfinyl)-1-(4-fluoro-3-(trifluoromethyl)phenyl)ethan-1-one] — higher, > 10000 nM
- CCOC(=O)C[S+]([O-])c1ccc(C(=O)N2CCN(c3cccc(F)c3)CC2)cc1[N+](=O)[O-] (centres unmarked) [Example 9, Ethyl 2-((4-(4-(3-fluorophenyl)piperazine-1-carbonyl)-2-nitrophenyl)sulfinyl)acetate] — 5.5-fold higher, 631 nM
- CCOC(=O)C[S+]([O-])c1ccc(C(=O)N2CCN(c3cccc(C)c3)[C@H](C)C2)cc1[N+](=O)[O-] (stereo partly drawn) [Example 3, Ethyl 2-((4-((R)-3-methyl-4-(m-tolyl)piperazine-1-carbonyl)-2-nitrophenyl)sulfinyl)acetate] — 1.7-fold higher, 195 nM
- CCOC(=O)C[S+]([O-])c1ccc(C(=O)N2CCN(c3cccc(F)c3)[C@@H](C)C2)cc1[N+](=O)[O-] (stereo partly drawn) [Example 25, Ethyl 2-((4-((S)-4-(3-fluorophenyl)-3-methylpiperazine-1-carbonyl)-2-nitrophenyl)sulfinyl)acetate] — within 1.5-fold, 155 nM
- C[C@H]1[C@H](C)N(c2cccc(Cl)c2)CCN1C(=O)c1ccc([S+]([O-])CC(=O)c2ccncn2)c(Cl)c1 (mixture of isomers) [Example 100, (±) 2-((2-Chloro-4-(4-(3-chlorophenyl)-trans-2,3-dimethylpiperazine-1-carbonyl)phenyl)sulfinyl)-1-(pyrimidin-4-yl)ethan-1-one] — within 1.5-fold, 87.1 nM
- CCOC(=O)CSc1ccc(C(=O)N2CCN(c3cccc(C)c3)[C@@H](C)C2)cc1[N+](=O)[O-] [Example 5, Ethyl (S)-2-((4-(3-methyl-4-(m-tolyl)piperazine-1-carbonyl)-2-nitrophenyl)thio)acetate] — higher, > 10000 nM
- C[C@H]1[C@H](C)N(c2cccc(Cl)c2)CCN1C(=O)c1ccc([S+]([O-])CC(=O)c2ccc(C#N)cc2)c(Cl)c1 (mixture of isomers) [Example 99, (±) 4-(2-((2-Chloro-4-(4-(3-chlorophenyl)-trans-2,3-dimethyl-piperazine-1-carbonyl)phenyl)sulfinyl)acetyl)benzonitrile] — within 1.5-fold, 91.2 nM
